US8524691B2, “Phosphonated rifamycins and uses thereof for the prevention and treatment of bone and joint infections” (The Medicines Company, priority 2008, dated 2013)
≈ marks a conversion by molar mass, not a printed value. Where two headings read alike, the source gives them in different places.

Tests used:
[1] = test system: S. aureus ATCC 13709^A, Novobiocin and Rifampicin resistant variant; assay: Antibacterial susceptibility (MIC), NCCLS broth microdilution; type: cell-based
Description: (§1) Susceptibility of S. aureus strains to the known antibiotics and synthesized compounds was determined by following the guidelines set by NCCLS (M26-A). Compounds were diluted two-fold serially in DMSO and transferred to cation-adjusted Mueller Hinton broth (CAMHB; Becton Dickinson). 50 μL of compounds diluted in CAMHB was mixed with 100 μL of bacteria diluted in CAMHB in 96-well microtiter plates. The final concentration of micro-organisms in the assay was 5×10^5c.f.u. per mL and the final concentration of DMSO in the assay was 1.25%. Assays were set up in duplicate and incubated at 37° C. for 18 h. The lowest concentration of compound that inhibited visible growth was reported as the minimum inhibitory concentration (MIC).

S. aureus ATCC 29213 = assay: as above; type: cell-based; settings: for Minimum inhibitory concentration, S. aureus ATCC 29213: CAMHB, 37° C., 18 h
Description: as §1

S. aureus ATCC 13709 [2] = assay: microbe, parasite or virus in culture; type: cell-based; settings: for Minimum inhibitory concentration, S. aureus ATCC 13709: CAMHB, 37° C., 18 h
Description: as §1

S. aureus ATCC 13709 [3] = assay: microbe, parasite or virus in culture; type: cell-based; settings: for Serum dependence of antibacterial activity (in words): MIC with versus without serum; for MIC: Staphylococcus aureus, ATCC13709, 18 h
Description: as §1
Susceptibility testing experiments were also carried out in the presence of serum. These experiments were carried out similar to the susceptibility testing with the following modifications. 75 μL of compounds diluted in CAMHB was mixed with 75 μL of bacteria diluted in 100% serum from any given source (commercial pooled mouse serum (MS) and human serum (HS), Equitech-Bio Inc.) or diluted in 8% purified human serum albumin (HSA) (Calbiochem). The final concentration of animal serum in the assay was 50% and the final concentration of purified human serum albumin in the assay was 4%; the concentrations of all other components were identical to those described for susceptibility testing.

[4] = test system: Novobiocin resistant mutant strain of S. aureus ATCC 13709; assay: Prophylactic efficacy in rat model of S. aureus bone infection; type: in vivo; settings: for Measured bacterial titer, test compound: 20 mg/kg parent drug equivalent, single intravenous bolus 1 day prior to infection, tibia 24 h postinfection
Description: To determine the in vivo activity of bisphosphonated prodrugs of Rifamycin derived antibacterials in comparison to their non-bisphosphonated parents, compounds 18, 19, 48a, 59, 66, 89, 95, 102, 110, 142b and 164 and their parent drug rifabutin were used as prophylactic therapeutics in an animal model of infection. Specifically, a spontaneous Novobiocin resistant mutant strain of S. aureus ATCC 13709 (a clinical osteomyelitis isolate), was grown overnight at 37° C. in brain heart infusion broth (BHIB). After 16 h of growth, cells were subcultured into fresh BHIB and incubated for 4 to 5 h at 37° C. The cells were washed twice with phosphate-buffered saline (PBS) and resuspended in BHIB supplemented with 10% (vol./vol.) fetal bovine serum at a density of approximately 10^10 colony forming units (CFU)/ml (based upon turbidimetry). The suspension was aliquoted and a portion was used to check the CFU count. The culture was stored frozen (−80° C.) and was used without subculture. For use as an inoculum the culture was thawed, diluted in PBS and kept in an ice bath until it was used.
Animals were infected as described by O'Reilly et al. (Antimicrobial Agents and Chemotherapy (1992), 36(12): 2693-97) to generate the bone infection. Female CD rats (age, 57 to 70 days; n=5/group; Charles River, St-Constant, Canada) were anaesthetized by isofluorane before and during the surgery. Following complete induction of anesthesia, the rat was placed ventral side up and hair was shaved from the surgical site. The skin over the leg was cleaned and disinfected (proviodine-ethanol 70%). A longitudinal incision below the knee joint was made in the sagital plane. The incision was made over the bone below the “knee joint” (tibia head or condyle) but not completely extending to the ankle. A high speed drill fitted with a 2 mm bulb bit was used to drill a hole into the medullar cavity of the tibia. Rats were injected intra-tibially with 0.05 ml 5% sodium morrhuate (sclerosing agent) and then with 0.05 ml of S. aureus suspension (ca. 2×10^7 CFU/rat). The hole was sealed by applying a small amount of dry dental cement which immediately absorbs fluids and adheres to the site. The wound was closed using 3 metal skin clips. Moxifloxacin (as a positive control) was injected once at 10 mg/kg intravenously 1 h postinfection in saline, while the Rifabutin derived prodrugs (prepared in 0.9% saline) were injected at the dose indicated in Table 3 as a single intravenous bolus at different time points prior to the infection.
Infected rats were sacrificed by CO2 asphyxiation 24 h postinfection to monitor the bacterial CFU count. Infected tibiae were removed, dissected free of soft tissue, and weighed. The bones were ground, 50 mg of charcoal were added and the powder was resuspended in 5 ml 0.9% NaCl, serially diluted and processed for quantitative cultures. Treatment efficacy was measured in terms of Log viable bacteria (Log CFU per gram of bone). […] The limit of detection is 2 Log CFU. Statistical comparisons of viable bacterial counts for the different treated and untreated groups were performed with the Dunnett's multiple-comparison test. Differences were considered significant when the P value was <0.05 when comparing treated infected animals to the untreated infected ones. The doses used, the amount of time separating the treatment from the time of infection and the treatment outcomes are shown in Table 3.

| SMILES | MIC ([1]; Staphylococcus aureus, ATCC13709, read-out: Minimum inhibitory concentration, S. aureus ATCC 13709^A) [µg/mL] | MIC (S. aureus ATCC 29213; Staphylococcus aureus, ATCC29213, 18 h, read-out: Minimum inhibitory concentration, S. aureus ATCC 29213) [µg/mL] | MIC (S. aureus ATCC 13709 [2]; Staphylococcus aureus, ATCC13709, 18 h, read-out: Minimum inhibitory concentration, S. aureus ATCC 13709) [µg/mL] | Serum dependence of antibacterial activity (in words) (S. aureus ATCC 13709 [3]) | MIC (S. aureus ATCC 13709 [3]; read-out: Minimum inhibitory concentration, ATCC 13709 + 50% Human Serum) [µg/mL] | MIC (S. aureus ATCC 13709 [3]; read-out: Minimum inhibitory concentration, ATCC 13709 + 50% Mouse Serum) [µg/mL] | MIC (S. aureus ATCC 13709 [3]; read-out: Minimum inhibitory concentration, ATCC 13709 + 50% Rat Serum) [µg/mL] | Measured bacterial titer, test compound [4] | Minimum inhibitory concentration, S. aureus ATCC 13709^A [1] [µg/mL] | Minimum inhibitory concentration, S. aureus ATCC 29213 (S. aureus ATCC 29213) [µg/mL] | Minimum inhibitory concentration, S. aureus ATCC 13709 (S. aureus ATCC 13709 [2]) [µg/mL] | Minimum inhibitory concentration, ATCC 13709 + 50% Human Serum (S. aureus ATCC 13709 [3]) [µg/mL] | Minimum inhibitory concentration, ATCC 13709 + 50% Mouse Serum (S. aureus ATCC 13709 [3]) [µg/mL] | Minimum inhibitory concentration, ATCC 13709 + 50% Rat Serum (S. aureus ATCC 13709 [3]) [µg/mL] | Prophylactic activity in rat bone infection model (in words) ([4]; 20 mg/kg, 1 day or 5 days prior to infection) |
| --- | --- | --- | --- | --- | --- | --- | --- | --- | --- | --- | --- | --- | --- | --- | --- |
| CO[C@H]1/C=C/O[C@@]2(C)Oc3c(C)c(O)c4c(c3C2=O)C2=NC3(CCN(CC(C)C)CC3)NC2=C(NC(=O)/C(C)=C\C=C\[C@H](C)[C@H](OC(=O)CN(CCCCC(P(=O)(O)O)P(=O)(O)O)CCNC(=O)OCc2ccc(OC(C)=O)cc2)[C@@H](C)[C@@H](O)[C@@H](C)[C@H](OC(C)=O)[C@@H]1C)C4=O [Compound 66] | > 128 | 4 (≈ 2.92 µM) | 4 (≈ 2.92 µM) | significant increase in antibacterial activity in serum | 4 | 0.125 | 0.008 | 1.97 ± 0.05 Log CFU/g of bone |  |  |  |  |  |  |  |
| CCC(=O)OCOC(=O)N[C@@H](CCC(=O)Nc1ccc(CC(P(=O)(O)O)P(=O)(O)O)cc1)C(=O)N(C)CC(=O)O[C@@H]1[C@@H](C)[C@@H](O)[C@@H](C)[C@H](OC(C)=O)[C@H](C)[C@@H](OC)/C=C/O[C@@]2(C)Oc3c(C)c(O)c4c(c3C2=O)C2=NC3(CCN(CC(C)C)CC3)NC2=C(NC(=O)/C(C)=C\C=C\[C@@H]1C)C4=O.N.N [Compound 110] |  |  |  | significant increase in antibacterial activity in serum |  |  |  | 1.94 ± 0.04 Log CFU/g of bone | >128 | 8 | 8 | 8 | 0.125 | 0.0156 |  |
| CCC(=O)OCOC(=O)N(CCCC(P(=O)(O)O)P(=O)(O)O)CCOC(=O)N1C2=C3NC(=O)/C(C)=C\C=C\[C@H](C)[C@H](O)[C@@H](C)[C@@H](O)[C@@H](C)[C@H](OC(C)=O)[C@H](C)[C@@H](OC)/C=C/O[C@@]4(C)Oc5c(C)c(O)c(c(c5C4=O)C2=NC12CCN(CC(C)C)CC2)C3=O [Compound 164] |  |  |  | significant increase in antibacterial activity in serum |  |  |  | 5.48 ± 0.64 Log CFU/g of bone | >128 | 4 (≈ 3.12 µM) | 4 (≈ 3.12 µM) | 8 | 2 | 0.25 | ineffective at 1 day |
